From patent EP0359745B1, “GROWTH FACTOR RECEPTOR” (IMPERIAL CANCER RESEARCH TECHNOLOGY LIMITED, priority 1987, dated 1988)
Non-standard residues stand in square brackets, D forms with d. Residues, ends and D or L forms follow the SMILES beside them. No end group written: not given here.

How the values were obtained:
GRP receptor [1] = target: T1, GRP receptor (Mus musculus, UniProt P21729); experiment: specific [¹²⁵I]GRP binding to intact Swiss 3T3 cells
T1 construct: endogenous in cells; host or cells: Swiss 3T3 cells (mouse fibroblasts)
T1 sequence (P21729 whole entry): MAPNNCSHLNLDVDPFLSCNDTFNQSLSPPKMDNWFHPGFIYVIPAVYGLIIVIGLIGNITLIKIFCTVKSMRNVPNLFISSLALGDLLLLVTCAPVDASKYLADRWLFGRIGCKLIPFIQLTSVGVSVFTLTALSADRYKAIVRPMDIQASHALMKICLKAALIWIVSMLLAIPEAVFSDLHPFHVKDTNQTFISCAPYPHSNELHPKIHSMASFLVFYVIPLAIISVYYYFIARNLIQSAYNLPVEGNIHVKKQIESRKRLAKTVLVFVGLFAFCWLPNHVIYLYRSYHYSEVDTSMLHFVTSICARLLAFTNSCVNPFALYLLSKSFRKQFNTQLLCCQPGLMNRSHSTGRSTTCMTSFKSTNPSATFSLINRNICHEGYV
Procedure: (§1) Cell culture procedure (33), assays of DNA synthesis by ³H-thymidine incorporation (34) ad ¹²⁵I-GRP binding to intact cells (13) were performed as described previously.
(§2) Figure 4. […] Values are expressed as percentage of the specific binding obtained in the absence of antagonists. […] Each point represents the mean of 3 determinations. […] Specific binding (B) is expressed in pmol/10⁶ cells and is shown in a double-reciprocal plot. Each point represents the mean of duplicate determinations. […] After 2 hours, the cultures were washed twice with binding medium then incubated in 1 ml containing 6 mM ethylene glycol bis (succinimidylsuccinate) (EGS) at pH 7.4 for 15 minutes at 15°C. The cultures were then washed twice with cold phosphate-buffered saline and solubilised in 0.1 ml of 2x sample buffer, then immediately heated at 100°C for 5 minutes and electrophoresed on a 10% polyacrylamide gel.

Mr 75000-85000 protein = Mr 75000-85000 protein (Mus musculus, UniProt P21729); experiment: ¹²⁵I-GRP affinity labelling (EGS cross-linking) of the Mr 75000-85000 protein in Swiss 3T3 cells, SDS-PAGE and scanning densitometry; assay type: binding; set-up: endogenous in cells; host or cells: Swiss 3T3 cells (mouse fibroblasts); settings: for cross-linking of ¹²⁵I-GRP / level of the Mr 75000-85000 protein (in words): summary of Table 1, saturating concentrations of the other mitogens; for Mr 75000-85000 protein % of control: ¹²⁵I-GRP (0.5 nM), 15°C, 2.5 h, 6 mM EGS, additions: GRP 360 nM, GRP (14-27) 30 nM, bombesin 30 nM, litorin 92 nM, neuromedin B 220 nM, [D-Arg¹,D-Pro²,D-Trp^7,9,Leu¹¹] substance P 100 »M, GRP (1-16) 3230 nM, PDGF 5 nM, EGF 83 nM, vasopressin 1000 nM, insulin 1 »g/ml, phorbol 12,13 dibutyrate 2000 nM, substance P 740 nM, substance K 880 nM, somatostatin 610 nM, neurotensin 600 nM
Chain of Mr 75000-85000 protein (P21729 whole entry): as above
Procedure: After 2.5 h the cells were washed three times at 15°C with phosphate buffered saline (PBS) ad then incubated for 15 min at 15°C In 1 ml of binding medium, pH 7.4 In the presence of the appropriate cross-linking agent at the concentration indicated. The cross-linking agents (EGS, DSS, DSP and BSCOES) were dissolved in dimethyl sulphoxide immediately prior to use and were added to medium to give a final concentration of dimethylsulphoxide of 1-2%. The cultures were rapidly rinsed twice with PBS at 4°C and solubilized in 0.1ml of 2 x sample buffer 0.2 M Tris-HCl, pH 6.8, 10% (w/v) glycerol, 6% sodium dodecyl sulphate (SDS) (w/v) 4% β-mercaptoethanol (v/v) and 2 mM ethylenediaminetetraacetic acid. Samples were immediately heated at 100°C for 3-5 min and analysed by either one or two-dimensional gel electrophoresis.
Slab gel electrophoresis was performed using 7.5% acrylamide in the separating gel ad 5% in the stacking gel, ad 0.1% SDS (31). After electrophoresis gels were stained, destained and dried down onto paper for autoradiography with Fuji X-ray film (Fuji Photo Film Co. Ltd. Japan). Dried gels were exposed to film for 4-8 days. Two-dimensional gel electrophoresis was performed as described by O'Farrell (32) using isoelectric focusing in the 1st dimension and SDS-polyacrylamide gel electrophoresis (SDS-PAGE) (8% polyacrylamide) in the second dimension. The samples prepared for isoelectric focusing containing 1.4% LKB ampholytes, pH 5-7, plus 0.6% LKD ampholytes, pH 3.5-10, 6M urea, and 2% Nonidet P-40. The Mr 75000-85000 band from autoradiograms was scanned using a Joyce-Loebl double beam densitometer and the areas under specific peaks were measured with a Hewlett-Packard digitizer.
After this time some cells were washed four times with cold (4°C) PBS supplemented with 1 mg/ml BSA, solubilized and total cell associated radioactivity was then determined in a gamma counter. […] The cells were then solubilized and samples were analyzed by SDS-PAGE. After electrophoresis, gels were dried, exposed to film and scanned as described in Materials and Methods. The areas under the individual peaks for the Mr 75000-85000 protein are shown as a function of the concentration of the unlabelled peptide and are expressed as a percentage of the control. […] The level of the Mr 75000-85000 protein expressed in arbitrary units is shown as a function of the concentration of the labelled ligand. Inset: autoradiogram of the gel used for scanning; the Mr 75000-85000 and 160,000 bands are indicated by arrows. All other experimental details were as described in Materials and Methods.
as §2
After the incubation period cultures were treated with 6 mM EGS as described in Materials and Methods. Each value is expressed as a percentage of the level of the Mr 75000-85000 protein obtained with no additons (-). Other experimental details are as described in Materials and Methods.

Swiss 3T3 cells [2] = settings: statement in words, earlier work (reference 13); cited from earlier work
GRP receptor [3] = target: T1, GRP receptor; settings: statement in words, earlier work (reference 13); cited from earlier work
Swiss 3T3 cells [4] = experiment: GRP-induced DNA synthesis ([³H]thymidine incorporation) in Swiss 3T3 cells; assay type: cell-based, mouse; settings: for ability to inhibit mitogenesis stimulated by GRP: substance P antagonists tested at 50 »m, ranking in words
Procedure: as §1
Figure 3. Inhibition of GRP-induced DNA synthesis by [DPro²]spantide (A) and [DPhe⁵]spantide (D). […] After 40 hours DNA synthesis was estimated by [³H]thymidine incorporation into acid-precipitable material. […] Each point represents the mean of duplicate determinations. […] Values are expressed as a percentage of [³H]thymidine incorporation obtained in the absence of antagonists (100% = 8.6 x 10⁵ cpm per dish). Each point represents the mean of 4 determinations.

Swiss 3T3 cells [5] = experiment: GRP-stimulated rise in cytosolic Ca²⁺ concentration (fura-2 fluorescence) in Swiss 3T3 cells; assay type: cell-based, mouse
Procedure: (§3) Figure 5. […] Left: Effects of antagonists on [Ca²⁺]i. Quiescent Swiss 3T3 cells grown on Cytodex 2 beads were washed twice with DMEM and incubated for 10 minutes with fura-2 tetracetoxymethyl ester at 1 »m, then washed three times and suspended in 2 ml of electrolyte solution (6) in the fluorimeter at 37°C and stirred. Fluorescence was recorded continuously in a Perkins-Elmer LS5 luminescence spectrometer with an excitation wavelength of 335 nm and emission wavelength of 510 nm. After a period of equilibration, the following additions were made: solvent, S; antagonist A at 5 »m, A, 5 and 20 »m, A, 20; antagonist D at 5»m, D, 5. […] Values are expressed as percentages of the specific binding obtained with [¹²⁵I]EGF alone at 0.2 nM. The non-specific binding was obtained by the addition of 500-fold excess of unlabelled EGF. Each point represents the mean of 6 determinations.

Swiss 3T3 cells [6] = experiment: reversal of the inhibition of [¹²⁵I]EGF binding induced by GRP in Swiss 3T3 cells; assay type: cell-based, mouse; settings: read-out: Half-maximal reversal of inhibition (of [¹²⁵I]EGF binding by GRP); [¹²⁵I]EGF 0.2 nM, GRP 3.6 nM, 1 hour, 37°C
Procedure: as §3

H69 cells = experiment: growth of SCLC cell line in serum-free medium (cell number, Coulter Counter); assay type: cell-based
Procedure: Figure 6. […] Stock cultures of cell lines H69, H128 and H417 were maintained in RPMI 1640 medium with 10% fetal bovine serum (heat inactivated) in a humidified atmosphere of 10% CO₂:90% air at 37°C. They were passaged every 7 days. Identical growth was obtained in the serum-free medium of RPMI 1640 supplemented with HITES (29) (hydrocortisone, 10 nM; insulin, 5 »g/ml; transferrin, 100 »g/ml; 17β-estradiol, 10 nM; sodium selenite, 30 nM) and 0.25% bovine serum albumin. […] Cell number was determined at intervals over 14 days in a Coulter Counter after disaggregation of cell clumps by syringing through 19G and 21G needles. Each point represents the mean of 3 determinations.
Figure 7. Inhibition of SCLC growth in vitro by [DPro²]spantide and [DPhe⁵]spantide is concentration-dependent. Cultures of H69 cells were washed twice with RPMI 1640 medium then incubated in serum-free medium (as in Figure 6) in the absence (●) or presence of various concentrations of [DPro²]spantide (o,A) and [DPhe⁵]spantide (△,D). Cell number was determined in a Coulter Counter after disaggregation of cell clumps by syringing through 19G and 21 G needles. Samples were incubated for 13 days, when the controls (inset) had achieved 10-fold increase in number, indicated by the arrow. Each point represents the mean (± standard deviation) of 5 determinations.

Compound: CC(C)C[C@H](NC(=O)[C@H](CC(C)C)NC(=O)[C@@H](Cc1c[nH]c2ccccc12)NC(=O)[C@H](Cc1ccccc1)NC(=O)[C@@H](Cc1c[nH]c2ccccc12)NC(=O)[C@H](CCC(N)=O)NC(=O)[C@@H](Cc1ccccc1)NC(=O)[C@@H]1CCCN1C(=O)[C@H](CCCCN)NC(=O)[C@@H]1CCCN1C(=O)[C@H](N)CCCN=C(N)N)C(N)=O [[DPhe⁵]spantide, D-Arg-Pro-Lys-Pro-D-Phe-Gln-D-Trp-Phe-D-Trp-Leu-Leu-NH₂] (H-[dR]PKP[dF]Q[dW]F[dW]LL-NH2)
- IC50 (GRP receptor [1]; read-out: Half-maximal inhibition of binding): 2.3 µM
- IC50 (Mr 75000-85000 protein; read-out: Half-maximal inhibition (affinity-labelling of the Mr 75000-85000 protein)): 5.5 µM

Compound: GRP (1-16): the 1-16 amino acid fragment of GRP (amino-terminal fragment) (VPLPAGGGTVLTKMYP; Gastrin-releasing peptide; UniProt P07492 24-39, looked up, fragment)
- stimulation of DNA synthesis (Swiss 3T3 cells [2]): nor stimulates DNA synthesis
- inhibition of GRP binding to Swiss 3T3 cells (GRP receptor [3]): neither inhibits
- cross-linking of ¹²⁵I-GRP / level of the Mr 75000-85000 protein (in words) (Mr 75000-85000 protein): no reduction
- Mr 75000-85000 protein % of control (Mr 75000-85000 protein): 93 % of control

Compound: Vasopressin: mitogen for Swiss 3T3 cells
- cross-linking of ¹²⁵I-GRP / level of the Mr 75000-85000 protein (in words) (Mr 75000-85000 protein): not substantially affected
- Mr 75000-85000 protein % of control (Mr 75000-85000 protein): 94 % of control

Compound: Spantide
- antagonist activity (Swiss 3T3 cells [4]; even at 100 uM): no antagonist activity
- ability to inhibit mitogenesis stimulated by GRP (Swiss 3T3 cells [4]): less potent than either A or D

Compound: GRP (14-27): the 14-27 amino acid fragment of GRP (MYPRGNHWAVGHLM; ends and bridges not checked; UniProt P07492 37-50, looked up, fragment)
- Mr 75000-85000 protein % of control (Mr 75000-85000 protein): 0.4 % of control

Compound: CC(C)C[C@H](NC(=O)[C@H](CC(C)C)NC(=O)[C@@H](Cc1c[nH]c2ccccc12)NC(=O)[C@H](Cc1ccccc1)NC(=O)[C@@H](Cc1c[nH]c2ccccc12)NC(=O)[C@H](CCC(N)=O)NC(=O)[C@@H](Cc1ccccc1)NC(=O)[C@@H]1CCCN1C(=O)[C@H](CCCCN)NC(=O)[C@@H]1CCCN1C(=O)[C@H](N)CCCNC(=N)N)C(N)=O [[DPhe⁵]spantide, D-Arg-Pro-Lys-Pro-D-Phe-Gln-D-Trp-Phe-D-Trp-Leu-Leu-NH₂] (H-[dR]PKP[dF]Q[dW]F[dW]LL-NH2)
- IC50 (Swiss 3T3 cells [4]; GRP 3.6 nM, 40 hours, Figure 3 right, read-out: Half-maximal inhibition of DNA synthesis): 22 µM
- concentration of GRP required to produce half-maximal stimulation of DNA synthesis (Swiss 3T3 cells [4]; antagonist at 20 »m, Figure 3 left): markedly increased
- fold more potent than [DPro²]spantide in inhibiting DNA synthesis induced by GRP (Swiss 3T3 cells [4]; ratio of half-maximal concentrations): 5.4 fold
- ability to inhibit mitogenesis stimulated by GRP (Swiss 3T3 cells [4]): most potent GRP antagonist
- affinity of the receptors of [¹²⁵I]GRP (GRP receptor [1]; 10 »m antagonist, double reciprocal plot, number of binding sites unchanged): markedly reduces the affinity
- difference in potency (GRP receptor [1]; [DPhe⁵]spantide versus [DPro²]spantide, inhibition of specific [¹²⁵I]GRP binding): 6.1 fold
- rise in [Ca²⁺]i caused by the addition of GRP (Swiss 3T3 cells [5]; GRP (1 nM), antagonist at 5 »m): effective
- response to PDGF ([Ca²⁺]i) (Swiss 3T3 cells [5]; antagonist at 5 »m, PDGF at 1 nM, specificity): did not prevent
- fold more potent than [DPro²]spantide in this assay (Swiss 3T3 cells [5]; prevention of the GRP-induced rise in [Ca²⁺]i): at least 4 fold
- EC50 (Swiss 3T3 cells [6]): 8.7 µM
- IC50 (H69 cells; H69 cells, serum-free medium, 13 days, read-out: half-maximal effect (inhibition of growth)): 24 µM
- potency of Antagonist D over Antagonist A (H69 cells; H69 growth inhibition): more than 5 fold

Compound: CSCC[C@H](NC(=O)[C@H](CC(C)C)NC(=O)CNC(=O)[C@H](Cc1ccccc1)NC(=O)[C@H](Cc1ccccc1)NC(=O)[C@H](CCC(N)=O)NC(=O)[C@H](CCC(N)=O)NC(=O)[C@@H]1CCCN1C(=O)[C@H](CCCCN)NC(=O)[C@@H]1CCCN1C(=O)[C@@H](N)CCCNC(=N)N)C(N)=O [Substance P]
- stimulation of DNA synthesis (Swiss 3T3 cells [2]): nor stimulates DNA synthesis
- inhibition of GRP binding to Swiss 3T3 cells (GRP receptor [3]): neither inhibits
- cross-linking of ¹²⁵I-GRP / level of the Mr 75000-85000 protein (in words) (Mr 75000-85000 protein): no effect

Compound: Neurotensin: unrelated factor
- Mr 75000-85000 protein % of control (Mr 75000-85000 protein): 93 % of control

Compound: Somatostatin: neuropeptide
- cross-linking of ¹²⁵I-GRP / level of the Mr 75000-85000 protein (in words) (Mr 75000-85000 protein): no effect
- Mr 75000-85000 protein % of control (Mr 75000-85000 protein): 97 % of control
